Paper PMC5790609 (Journal of neuroimmune pharmacology : the official journal …, 2017)

Key:
[1] = biological target: TSPO (C/C rs6971 genotype) (Homo sapiens, UniProt P30536); assay: [3H]-DPA-713 dissociation kinetics, platelet lysates, C/C genotype; type: binding; settings: PK11195 5 μM, cholesterol 1.2 μM
[2] = test system: TSPO (C/T rs6971 genotype); assay: [3H]-DPA-713 dissociation kinetics, platelet lysates, C/T genotype; type: binding, human; settings: for effect on rate of dissociation of [3H]-DPA-713 vs. excess DPA-713: PK11195 5 μM, cholesterol 1.2 μM
[3] = biological target: TSPO (T/T rs6971 genotype) (Homo sapiens, UniProt P30536); assay: [3H]-DPA-713 dissociation kinetics, platelet lysates, T/T genotype; type: binding; settings: PK11195 5 μM, cholesterol 1.2 μM
TSPO (T/T rs6971 genotype), sequence (P30536 2-169): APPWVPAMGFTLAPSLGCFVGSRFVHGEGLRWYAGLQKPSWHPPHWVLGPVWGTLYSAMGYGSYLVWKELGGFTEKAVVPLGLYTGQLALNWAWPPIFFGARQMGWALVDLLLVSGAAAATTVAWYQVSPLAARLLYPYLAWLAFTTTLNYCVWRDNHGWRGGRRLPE

[4] = ref Vivash and O'Brien 2016; cited from earlier work

TSPO (C/C rs6971 genotype), sequence (P30536 whole entry): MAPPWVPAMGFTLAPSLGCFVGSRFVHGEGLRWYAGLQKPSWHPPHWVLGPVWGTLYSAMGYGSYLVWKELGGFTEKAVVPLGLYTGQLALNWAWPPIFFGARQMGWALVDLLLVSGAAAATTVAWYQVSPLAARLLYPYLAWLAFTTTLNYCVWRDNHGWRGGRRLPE

Row | SMILES | effect on rate of dissociation of [3H]-DPA-713 vs. excess DPA-713 [1] | effect on rate of dissociation of [3H]-DPA-713 vs. excess DPA-713 [2] | effect on rate of dissociation of [3H]-DPA-713 vs. excess DPA-713 [3] | dissociation rates of [3H]-DPA-713 with 2 vs. 12 μM DPA-713 [2] | non-specific plasma protein binding [4]
1 | CC(C)CCC[C@@H](C)[C@H]1CC[C@H]2[C@@H]3CC=C4C[C@@H](O)CC[C@]4(C)[C@H]3CC[C@]12C [cholesterol] | the same | the same | accelerated | – | –
2 | CCN(CC)C(=O)Cc1c(-c2ccc(OC)cc2)nn2c(C)cc(C)nc12 [DPA-713] | – | – | – | the same | –
3 | CCC(C)N(C)C(=O)c1cc2ccccc2c(-c2ccccc2Cl)n1 (centres unmarked) [PK11195] | the same | the same | accelerated | – | high
